Source: patent publication US12630547B2, “RAS protein degraders, pharmaceutical compositions thereof, and their therapeutic applications” (BioTheryX, Inc., priority 2019, dated 2026)
Like-named read-outs stand apart in the source and are kept apart here.

Columns and labels:
Type in all cases: cell-based
H358 cells = experiment: Cell viability assay (CELLTITER-GLO), H358 cells; details: 3 days; for viability at 10 µM: Table 1, compound at 10 μM, read-out: Effect on H358 cell viability (% DMSO)
Procedure, shortened: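 Luminescent ATP read-out (CellTiter-Glo) after 3-day incubation at 37 °C of H358 cells plated at 4,000/well in RPMI 1640 with 10% FBS. Values are either IC50 bins (A ≤1 μM through D >10 μM) or % of DMSO viability at 10 μM or 1 μM, bins A <10% through D ≥50%.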

H23 cells = experiment: Cell viability assay (CELLTITER-GLO), H23 cells; details: Table 4, 3 days
Procedure, shortened: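 Luminescent CellTiter-Glo readout after 3-day compound treatment (37° C, 5% CO2) of H23 cells plated at 4,000 cells/well in RPMI 1640 plus 10% FBS, DMSO as control. IC50 values given as categorical ranges.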

MV-4-11 cells = experiment: Cell viability assay (CELLTITER-GLO), MV-4-11 cells; details: Homo sapiens, MV4-11, 72 h; Table 1; compound at 10 μM, 3 days; read-out: Effect on MV-4-11 cell viability (% DMSO)
Protocol: MOLM-13 cells, MV-4-11 cells, H23, and H358 cells were independently cultured in RPMI 1640 media supplemented with 10% fetal bovine serum, streptomycin and penicillin. The cells were plated in white walled 96-well plates at 4,000 cells/well. The cells were incubated in DMSO (control) or a compound for 3 days at 37° C. under 5% CO2. A CELLTITER-GLO® reagent (100 μL) was then added to each well. After a 10 min incubation with shaking, luminescence was measured using an ENVISION® multimode plate reader.
In Tables 1 and 2, each compound was tested at 10 μM; and in Table 3, each compound was tested at 1 μM. In Tables 1 to 3, the cell viability values as % DMSO are reported as “A,” “B,” “C,” or “D;” where “A” represents a % viability value of less than 10%; “B” represents a % viability value of no less than 10% and less than 25%; “C” represents a % viability value of no less than 25% and less than 50%; and “D” represents a % viability value of no less than 50%. Compound A is […]

MOLM-13 cells = experiment: Cell viability assay (CELLTITER-GLO), MOLM-13 cells; details: Homo sapiens, MOLM-13, 72 h, 3 days, read-out: Effect on MOLM-13 cell viability (% DMSO); for viability at 10 µM: compound at 10 μM; for viability at 1 µM: Table 3, compound at 1 μM
Procedure, shortened: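 Viability, as % of DMSO control, was read by CellTiter-Glo luminescence after a 3-day compound exposure (single dose of 10 μM or 1 μM) at 37 °C. Cells plated at 4,000/well in RPMI 1640 with 10% FBS. Results reported as categories A <10%, B 10–<25%, C 25–<50%, D ≥50%.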

KRAS protein = target: T1, KRAS protein (Homo sapiens, UniProt P01116, G12C); experiment: Protein degradation assay (western blot) in H358 cells; details: 1 μM, 24 h
T1 construct: endogenous in cells; host or cells: H358 cells
Protocol: H358 cells were grown in RPMI 1640 media supplemented with 10% fetal bovine serum, streptomycin, and penicillin. The cells were plated in 10 cm plates in the growth media. The next day, the cells were rinsed in 1× PBS with the media replaced by RPMI1640 supplemented with 2.5% fetal bovine serum, streptomycin, and penicillin. The cells were then treated with 1 μM of a compound for 24 h. Whole cell extracts were prepared using an immunoprecipitation (IP) lysis buffer. Briefly, the cells were washed once in PBS, and the cell pellets were resuspended in the IP lysis buffer and incubated for 15 min on ice. Cells debris was removed by centrifugation and the cleared whole cell lysates were transferred to new tubes for further analysis.
For a western blot analysis, the whole cell protein extracts were separated on 12% SDS-polyacrylamide gels, transferred to nitrocellulose, and probed with primary antibodies. Membranes were subsequently washed and probed with IRDYE® secondary antibodies. The signals were detected using an ODYSSEY® Imaging System. The antibodies used in the assay included anti-KRAS; β-actin mouse monoclonal antibody; IRDYE® 680RD goat anti-rabbit antibody; and IRDYE® 800CW goat anti-mouse antibody.

T1 sequence (P01116 1-188 isoform P01116-2 G12C): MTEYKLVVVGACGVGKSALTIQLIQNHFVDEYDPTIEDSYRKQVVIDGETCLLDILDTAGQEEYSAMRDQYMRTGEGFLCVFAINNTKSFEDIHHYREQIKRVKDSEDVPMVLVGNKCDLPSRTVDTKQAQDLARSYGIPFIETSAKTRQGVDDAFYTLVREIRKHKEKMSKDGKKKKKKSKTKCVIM

Compound: C=CC(=O)N1CCN(c2ncnc3c(F)c(-c4c(O)cccc4F)c(Cl)cc23)CC1 [A, 1-(4-(6-chloro-8-fluoro-7-(2-fluoro-6-hydroxyphenyl)quinazolin-4-yl)piperazin-1-yl)prop-2-en-1-one, reference compound]
- viability at 10 µM (H358 cells; Homo sapiens, NCI-H358, 72 h): 25 to 50%
- IC50 (H358 cells; Homo sapiens, NCI-H358, 72 h, Table 4, read-out: Inhibition of H358 cells, IC50): 990 nM
- IC50 (H23 cells; Homo sapiens, NCI-H23, 72 h, read-out: Inhibition of H23 cells, IC50): 4.3 µM
- viability at 10 µM (MV-4-11 cells): 25 to 50%
- viability at 10 µM (MOLM-13 cells; Table 1): 25 to 50%
- viability at 1 µM (MOLM-13 cells): ≥ 50%

Compound: C=CC(=O)N1CCN(c2ncnc3c(F)c(-c4c(F)cccc4OCCOCCOCCC(=O)NCCNc4cccc5c4C(=O)N(C4CCC(=O)NC4=O)C5=O)c(Cl)cc23)CC1 (stereo not shown) [Compound 1, 3-(2-(2-(2-(4-(4-Acryloylpiperazin-1-yl)-6-chloro-8-fluoroquinazolin-7-yl)-3-fluorophenoxy)ethoxy)ethoxy)-N-(2-((2-(2,6-dioxopiperidin-3-yl)-1,3-dioxoisoindolin-4-yl)amino)ethyl)propanamide]
- viability at 10 µM (H358 cells; Homo sapiens, NCI-H358, 72 h): 25 to 50%
- Inhibition of H358 cells, IC50 (class) (H358 cells; Table 4): C′
- Inhibition of H23 cells, IC50 (class) (H23 cells): C′
- viability at 10 µM (MV-4-11 cells): 10 to 25%
- viability at 10 µM (MOLM-13 cells; Table 1): 25 to 50%
- viability at 1 µM (MOLM-13 cells): ≥ 50%

Compound: C=CC(=O)N1CC(N2Cc3ccc(-c4cc(O)cc5ccccc45)cc3N(CCOCCOCCOCCNc3cccc4c3C(=O)N(C3CCC(=O)NC3=O)C4=O)C2=O)C1 (stereo not shown) [Compound 2, 4-((2-(2-(2-(2-(3-(1-Acryloylazetidin-3-yl)-7-(3-hydroxynaphthalen-1-yl)-2-oxo-3,4-dihydroquinazolin-1(2H)-yl)ethoxy)ethoxy)ethoxy)ethyl)amino)-2-(2,6-dioxopiperidin-3-yl)isoindoline-1,3-dione]
- viability at 10 µM (H358 cells; Homo sapiens, NCI-H358, 72 h): 10 to 25%
- viability at 10 µM (MV-4-11 cells): < 10%
- viability at 10 µM (MOLM-13 cells; Table 1): 10 to 25%

Compound: C=CC(=O)N1CCN(c2ncnc3c(F)c(-c4c(F)cccc4OCCCCCCCN4CCC(c5cc(F)cc6c5CN(C5CCC(=O)NC5=O)C6=O)CC4)c(Cl)cc23)CC1 (stereo not shown) [Compound 36, 3-(4-(1-(7-(2-(4-(4-Acryloylpiperazin-1-yl)-6-chloro-8-fluoroquinazolin-7-yl)-3-fluorophenoxy)heptyl)piperidin-4-yl)-6-fluoro-1-oxoisoindolin-2-yl)piperidine-2,6-dione]
- Inhibition of H358 cells, IC50 (class) (H358 cells; Table 4): A′
- Inhibition of H23 cells, IC50 (class) (H23 cells): A′
- degradation of KRAS protein (KRAS protein): about 60%
- viability at 10 µM (MOLM-13 cells; Table 2): < 10%

Compound: C=C(Cl)C(=O)N1CCN(c2ncnc3c(F)c(-c4c(F)cccc4OC[C@H]4CC[C@@H](CN5CCC(c6cc(F)cc7c6CN(C6CCC(=O)NC6=O)C7=O)CC5)CC4)c(Cl)cc23)CC1 (stereo partly shown) [Compound 127, 3-(4-(1-(((1s,4s)-4-((2-(6-Chloro-4-(4-(2-chloroacryloyl)piperazin-1-yl)-8-fluoro-quinazolin-7-yl)-3-fluorophenoxy)methyl)cyclohexyl)methyl)piperidin-4-yl)-6-fluoro-1-oxoisoindolin-2-yl)piperidine-2,6-dione]
- Inhibition of H358 cells, IC50 (class) (H358 cells; Table 4): A′
- Inhibition of H23 cells, IC50 (class) (H23 cells): A′
- viability at 10 µM (MOLM-13 cells; Table 2): < 10%

Compound: C=C(Cl)C(=O)N1CCN(c2nc(OC[C@@H]3CCCN3C)nc3c(F)c(-c4c(F)cccc4OCCCCCCCN4CCC(c5cc(F)cc6c5CN(C5CCC(=O)NC5=O)C6=O)CC4)c(Cl)cc23)C[C@H]1CC#N (stereo partly drawn) [Compound 128, 2-((2R)-4-(6-Chloro-7-(2-((7-(4-(2-(2,6-dioxopiperidin-3-yl)-6-fluoro-1-oxoisoindolin-4-yl)piperidin-1-yl)heptyl)oxy)-6-fluorophenyl)-8-fluoro-2-(((S)-1-methylpyrrolidin-2-yl)methoxy)quinazolin-4-yl)-1-(2-chloroacryloyl)piperazin-2-yl)acetonitrile]
- Inhibition of H358 cells, IC50 (class) (H358 cells; Table 4): A′
- Inhibition of H23 cells, IC50 (class) (H23 cells): A′
- viability at 10 µM (MOLM-13 cells; Table 2): < 10%

Compound: C=C(Cl)C(=O)N1CCN(c2ncnc3c(F)c(-c4c(F)cccc4OCCC4CCC(CCN5CCC(c6cc(F)cc7c6CN(C6CCC(=O)NC6=O)C7=O)CC5)CC4)c(Cl)cc23)C[C@H]1CC#N (stereo partly drawn) [Compound 129, 2-((2R)-4-(6-Chloro-7-(2-(2-(4-(2-(4-(2-(2,6-dioxopiperidin-3-yl)-6-fluoro-1-oxoisoindolin-4-yl)piperidin-1-yl)ethyl)cyclohexyl)ethoxy)-6-fluorophenyl)-8-fluoroquinazolin-4-yl)-1-(2-chloroacryloyl)piperazin-2-yl)acetonitrile]
- Inhibition of H358 cells, IC50 (class) (H358 cells; Table 4): A′
- Inhibition of H23 cells, IC50 (class) (H23 cells): B′
- viability at 10 µM (MOLM-13 cells; Table 2): < 10%

Compound: C=C(Cl)C(=O)N1CCN(c2ncnc3c(F)c(-c4c(F)cccc4OCCC4CCC(CCN5CCC(c6cc(F)cc7c6CN(C6CCC(=O)NC6=O)C7=O)CC5)C4)c(Cl)cc23)CC1 (stereo not shown) [Compound 130, 3-(4-(1-(2-(3-(2-(2-(6-Chloro-4-(4-(2-chloroacryloyl)piperazin-1-yl)-8-fluoroquinazolin-7-yl)-3-fluorophenoxy)ethyl)cyclopentyl)ethyl)piperidin-4-yl)-6-fluoro-1-oxoisoindolin-2-yl)piperidine-2,6-dione]
- Inhibition of H358 cells, IC50 (class) (H358 cells; Table 4): B′
- Inhibition of H23 cells, IC50 (class) (H23 cells): A′
- viability at 10 µM (MOLM-13 cells; Table 2): < 10%

Compound: CCC(=O)N1CCN(c2ncnc3c(F)c(-c4c(F)cccc4OCCNCC(=O)N4CCC(C#Cc5cccc6c5CN(C5CCC(=O)NC5=O)C6=O)CC4)c(Cl)cc23)CC1 (stereo not shown) [Compound 133, 3-(4-((1-((2-(2-(6-Chloro-8-fluoro-4-(4-propionylpiperazin-1-yl)quinazolin-7-yl)-3-fluorophenoxy)ethyl)glycyl)piperidin-4-yl)-1λ^5-ethynyl)-1-oxoisoindolin-2-yl)piperidine-2,6-dione]
- Inhibition of H358 cells, IC50 (class) (H358 cells; Table 4): D′
- Inhibition of H23 cells, IC50 (class) (H23 cells): D′
- viability at 10 µM (MOLM-13 cells; Table 2): ≥ 50%
